Non-standard residues stand in square brackets, D forms with d. No end group written: not given here.

2 molecules from patent US20240417439A1, “RECOMBINANT POLYPEPTIDE FOR DISRUPTING INTERACTION OF EAG2 AND KVß2 AND THERAPEUTIC APPLICATIONS THEREOF IN CANCER TREATMENT” (The Hospital for Sick Children, priority 2021, published 2024) can be followed below.

In one assay the test system is GBM532 cells. In words: cell viability of GBM532 cells following peptide treatment. Type of assay: cell-based, human. To be noted: increasing peptide concentrations. The text has this:
GBM532 cells were exposed to increasing concentrations of various peptide treatments. […] The peptide K59-78^TATwas used as a negative control.

Assay [1] has as its target T1, EAG2, endogenous, mouse whole brain (mouse, UniProt Q920E3 1-988).
T1 sequence (looked up): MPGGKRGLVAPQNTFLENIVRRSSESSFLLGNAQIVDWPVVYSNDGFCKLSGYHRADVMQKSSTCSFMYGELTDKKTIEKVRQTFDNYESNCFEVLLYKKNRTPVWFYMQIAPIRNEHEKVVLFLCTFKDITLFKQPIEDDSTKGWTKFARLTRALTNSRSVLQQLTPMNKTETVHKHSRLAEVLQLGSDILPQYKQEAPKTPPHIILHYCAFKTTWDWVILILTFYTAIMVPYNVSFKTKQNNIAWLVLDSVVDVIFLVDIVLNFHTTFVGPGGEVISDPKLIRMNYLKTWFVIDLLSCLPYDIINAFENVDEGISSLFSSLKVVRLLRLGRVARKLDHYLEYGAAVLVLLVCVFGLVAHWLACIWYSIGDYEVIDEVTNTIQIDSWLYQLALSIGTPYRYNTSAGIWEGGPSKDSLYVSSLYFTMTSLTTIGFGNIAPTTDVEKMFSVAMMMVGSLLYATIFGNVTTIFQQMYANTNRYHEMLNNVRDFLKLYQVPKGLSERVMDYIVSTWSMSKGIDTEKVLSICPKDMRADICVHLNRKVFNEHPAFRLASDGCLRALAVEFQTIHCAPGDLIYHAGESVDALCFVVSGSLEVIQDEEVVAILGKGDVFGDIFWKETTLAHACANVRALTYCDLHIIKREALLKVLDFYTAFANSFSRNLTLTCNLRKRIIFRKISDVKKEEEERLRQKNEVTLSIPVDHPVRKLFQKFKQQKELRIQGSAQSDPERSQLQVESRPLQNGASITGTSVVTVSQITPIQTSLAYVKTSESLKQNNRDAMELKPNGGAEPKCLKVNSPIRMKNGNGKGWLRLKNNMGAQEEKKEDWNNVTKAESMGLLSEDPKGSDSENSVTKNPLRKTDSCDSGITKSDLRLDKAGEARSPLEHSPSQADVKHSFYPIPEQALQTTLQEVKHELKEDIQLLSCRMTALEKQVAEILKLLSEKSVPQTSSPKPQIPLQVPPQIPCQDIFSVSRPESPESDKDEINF
The experiment in a line: co-IP from lysates of mouse whole brains.

“Retro-inverso-DIP: D-amino acids in reverse order: VLSSRRWGKKKIINGLVVEAKGAAYSGSGSGQPRRRQRRKKRG ([dV][dL][dS][dS][dR][dR][dW]G[dK][dK][dK][dI][dI][dN]G[dL][dV][dV][dE][dA][dK]G[dA][dA][dY][dS]G[dS]G[dS]G[dQ][dP][dR][dR][dR][dQ][dR][dR][dK][dK][dR]G)”: the cell-killing activity result in the assay on GBM532 cells is listed as “Good cell-killing activity”.

B1: Kvß2, endogenous, mouse whole brain (other, UniProt P62482 1-367, looked up)
chain: MYPESTTGSPARLSLRQTGSPGMIYSTRYGSPKRQLQFYRNLGKSGLRVSCLGLGTWVTFGGQITDEMAEHLMTLAYDNGINLFDTAEVYAAGKAEVVLGNIIKKKGWRRSSLVITTKIFWGGKAETERGLSRKHIIEGLKASLERLQLEYVDVVFANRPDPNTPMEETVRAMTHVINQGMAMYWGTSRWSSMEIMEAYSVARQFNLIPPICEQAEYHMFQREKVEVQLPELFHKIGVGAMTWSPLACGIVSGKYDSGIPPYSRASLKGYQWLKDKILSEEGRRQQAKLKELQAIAERLGCTLPQLAIAWCLRNEGVSSVLLGASNAEQLMENIGAIQVLPKLSSSIVHEIDSILGNKPYSKKDYRS
Turning to B1, the binding result in assay [1] was “no binding”.
